Laboratory results published in patent US20050037923A1, “Herbicidal mixture based on 7-pyrazolybenzoxazoles” (BASF Aktiengesellschaft, priority 2001, published 2005).

Assays:
MATIN = experiment: Greenhouse test, post-emergence herbicidal action; format: in vivo, false chamomille
Description: (§1) For the post-emergence treatment, the test plants were first grown to a height of 3 to 20 cm, depending on the plant habit, and only then treated. Here, the herbicidal compositions were suspended or emulsified in water as distribution medium and sprayed using finely distributing nozzles.
(§2) The respective components A and B and/or C were formulated as 10% by weight strength emulsion concentrate and introduced to the spray liquor with the amount of solvent system used for applying the active compound. In the examples, the solvent used was water.
(§3) The test period extended over 21 days. During this time, the plants were tended, and their response to the treatments with active compound was evaluated.
(§4) The evaluation for the damage caused by the chemical compositions was carried out using a scale from 0 to 100%, compared to the untreated control plants. Here, 0 means no damage and 100 means complete destruction of the plants.
(§5) In the examples below, the value E which is to be expected if the activity of the individual active compounds is just additive was calculated using the method of S. R. Colby (1967) “Calculating synergistic and antagonistic responses of herbicide combinations”, Weeds 15, p. 22 ff. E=X+Y—(X·Y/100) where • X=effect in percent using active compound A at an application rate a; • Y=effect in percent using active compound B at an application rate b; • E=expected effect (in %) of A+B at application rates a+b.
(§6) The plants used in the greenhouse experiments were of the following species: […]

THLAR = experiment: Greenhouse test, pre-emergence herbicidal action; format: in vivo, fanweed
Description: (§7) For the pre-emergence treatment, the test plants were sown is pots 1-2 days later, i.e. prior to germination, the pots were sprayed with the finely distributed herbicidal compositions, which had been suspended in water.
as §2, §3, §4, §5, §6

POLPE = experiment: Greenhouse test, post-emergence herbicidal action; format: in vivo, ladysthumb
Description: as §1, §2, §3, §4, §5, §6

COMBE = experiment: Greenhouse test, post-emergence herbicidal action; format: in vivo, tropical spiderwort; details: 21 days
Description: as §1, §2, §3, §4, §5, §6

CHEAL = experiment: Greenhouse test, pre-emergence herbicidal action; format: in vivo, lambsquarters
Description: as §7, §2, §3, §4, §5, §6

ECHCG [1] = experiment: Greenhouse test, pre-emergence herbicidal action; format: in vivo, barnyardgrass
Description: as §7, §2, §3, §4, §5, §6

BRAPL = experiment: Greenhouse test, post-emergence herbicidal action; format: in vivo, alexandergrass
Description: as §1, §2, §3, §4, §5, §6

BIDPI [2] = experiment: Greenhouse test, post-emergence herbicidal action; format: in vivo, hairy beggarticks
Description: as §1, §2, §3, §4, §5, §6

AVEFA = experiment: Greenhouse test, post-emergence herbicidal action; format: in vivo, wild oat
Description: as §1, §2, §3, §4, §5, §6

SETFA = experiment: Greenhouse test, post-emergence herbicidal action; format: in vivo, giant foxtail; details: 21 days
Description: as §1, §2, §3, §4, §5, §6

ABUTH [3] = experiment: Greenhouse test, post-emergence herbicidal action; format: in vivo, velvet leaf; details: 21 days
Description: as §1, §2, §3, §4, §5, §6

POAAN = experiment: Greenhouse test, post-emergence herbicidal action; format: in vivo, annual bluegrass
Description: as §1, §2, §3, §4, §5, §6

VERSS = experiment: Greenhouse test, post-emergence herbicidal action; format: in vivo, speadwell
Description: as §1, §2, §3, §4, §5, §6

SORHA = experiment: Greenhouse test, pre-emergence herbicidal action; format: in vivo, johnsongrass
Description: as §7, §2, §3, §4, §5, §6

ABUTH [4] = experiment: Greenhouse test, pre-emergence herbicidal action; format: in vivo, velvet leaf
Description: as §7, §2, §3, §4, §5, §6

SETVI = experiment: Greenhouse test, post-emergence herbicidal action; format: in vivo, green foxtail
Description: as §1, §2, §3, §4, §5, §6

crop plants = experiment: Safener action, pre-emergence, damage to crop plants; format: in vivo; details: 21 days
Description: as §7, §2, §4
As in the example above, test plants were grown, treated with the mixture according to the invention by the Pre-emergence method and, after a test period of 21 days, evaluated using a scale from 0 to 100% damage. The test plants used were crop plants.
A safener action is present if the damage to the crop plant caused by using a mixture according to the invention which comprises a safener C) is less than the damage caused when active compound A or active compounds A and B are used without safener.

GALAP = experiment: Greenhouse test, post-emergence herbicidal action; format: in vivo, catchweed bedstraw; details: 21 days
Description: as §1, §2, §3, §4, §5, §6

BIDPI [5] = experiment: Greenhouse test, pre-emergence herbicidal action; format: in vivo, hairy beggarticks
Description: as §7, §2, §3, §4, §5, §6

ECHCG [6] = experiment: Greenhouse test, post-emergence herbicidal action; format: in vivo, barnyardgrass
Description: as §1, §2, §3, §4, §5, §6

[7] = application rate 1.95 g/ha, 21 days
[8] = application rate 3.91 g/ha, 21 days
[9] = application rate 0.98 g/ha (Example 24)
[10] = application rate 1.95 g/ha (Example 24)
[11] = application rate 62.5 g/ha (Example 23)
[12] = application rate 1.95 g/ha (Example 28)
[13] = application rate 3.91 g/ha (Example 28)

## CCc1nc2c(Cl)cc(F)c(-c3nn(C)c(OC(F)F)c3Cl)c2o1 [I.9]
MATIN; application rate 1.95 g/ha
  Herbicidal action against MATIN, Found: 20%
MATIN; application rate 3.91 g/ha
  Herbicidal action against MATIN, Found: 20%
THLAR; application rate 15.63 g/ha
  Herbicidal action against THLAR, Found: 80%
THLAR; application rate 31.25 g/ha
  Herbicidal action against THLAR, Found: 80%
POLPE; application rate 0.49 g/ha, 21 days
  Herbicidal action against POLPE, Found: 5%
POLPE; application rate 0.98 g/ha, 21 days
  Herbicidal action against POLPE, Found: 10%
POLPE; [7]
  Herbicidal action against POLPE, Found: 50%
COMBE; application rate 0.98 g/ha
  Herbicidal action against COMBE, Found: 10%
COMBE; application rate 1.95 g/ha
  Herbicidal action against COMBE, Found: 10%
CHEAL; application rate 7.81 g/ha
  Herbicidal action against CHEAL, Found: 75%
CHEAL; application rate 15.63 g/ha
  Herbicidal action against CHEAL, Found: 75%
ECHCG [1]; application rate 7.81 g/ha
  Herbicidal action against ECHCG, Found: 10%
ECHCG [1]; application rate 15.63 g/ha
  Herbicidal action against ECHCG, Found: 35%
BRAPL; application rate 3.91 g/ha (Example 17)
  Herbicidal action against BRAPL, Found: 65%
BRAPL; application rate 7.81 g/ha (Example 17)
  Herbicidal action against BRAPL, Found: 85%
BIDPI [2]; [7]
  Herbicidal action against BIDPI, Found: 0%
BIDPI [2]; [8]
  Herbicidal action against BIDPI, Found: 40%
AVEFA; application rate 1.95 g/ha (Example 15)
  Herbicidal action against AVEFA, Found: 10%
AVEFA; [7]
  Herbicidal action against AVEFA, Found: 10%
AVEFA; application rate 3.91 g/ha (Example 15)
  Herbicidal action against AVEFA, Found: 20%
SETFA; application rate 1.95 g/ha
  Herbicidal action against SETFA, Found: 45%
ABUTH [3]; application rate 0.49 g/ha
  Herbicidal action against ABUTH, Found: 0%
ABUTH [3]; application rate 0.98 g/ha
  Herbicidal action against ABUTH, Found: 70%
POAAN; application rate 1.95 g/ha
  Herbicidal action against POAAN, Found: 10%
POAAN; application rate 3.91 g/ha
  Herbicidal action against POAAN, Found: 10%

## CCc1nc2c(Cl)cc(Cl)c(-c3nn(C)c(OC(F)F)c3Br)c2o1 [I.12]
VERSS; application rate 0.49 g/ha
  Herbicidal action against VERSS, Found: 0%
VERSS; application rate 0.98 g/ha
  Herbicidal action against VERSS, Found: 50%
SORHA; application rate 31.25 g/ha
  Herbicidal action against SORHA, Found: 30%
SORHA; application rate 62.5 g/ha
  Herbicidal action against SORHA, Found: 40%
POLPE; application rate 0.49 g/ha
  Herbicidal action against POLPE, Found: 15%
POLPE; application rate 0.98 g/ha
  Herbicidal action against POLPE, Found: 15%
POLPE; [9]
  Herbicidal action against POLPE, Found: 15%
POLPE; [10]
  Herbicidal action against POLPE, Found: 60%
POLPE; [7]
  Herbicidal action against POLPE, Found: 60%
POLPE; [8]
  Herbicidal action against POLPE, Found: 65%
ABUTH [4]; application rate 62.5 g/ha
  Herbicidal action against ABUTH, Found: 60%
ABUTH [4]; application rate 125 g/ha
  Herbicidal action against ABUTH, Found: 60%
ECHCG [1]; application rate 31.25 g/ha
  Herbicidal action against ECHCG, Found: 0%
ECHCG [1]; [11]
  Herbicidal action against ECHCG, Found: 0%
SETVI; application rate 0.98 g/ha
  Herbicidal action against SETVI, Found: 40%
SETVI; application rate 1.95 g/ha
  Herbicidal action against SETVI, Found: 50%
BRAPL; [12]
  Herbicidal action against BRAPL, Found: 50%
BRAPL; application rate 3.91 g/ha (Example 18)
  Herbicidal action against BRAPL, Found: 60%
BRAPL; [13]
  Herbicidal action against BRAPL, Found: 50%
BRAPL; application rate 7.81 g/ha (Example 18)
  Herbicidal action against BRAPL, Found: 75%
Crop plants; application rate 62.5 g/ha
  Damage to the crop plant corn (ZEAMX), cultivar Magister: 38%
  Damage to the crop plant corn (ZEAMX), cultivar P3751: 28%
Crop plants; application rate 125 g/ha
  Damage to the crop plant corn (ZEAMX), cultivar Magister: 35%
  Damage to the crop plant corn (ZEAMX), cultivar P3751: 35%
BIDPI [2]; application rate 1.95 g/ha
  Herbicidal action against BIDPI, Found: 65%
BIDPI [2]; application rate 3.91 g/ha
  Herbicidal action against BIDPI, Found: 65%
AVEFA; application rate 1.95 g/ha
  Herbicidal action against AVEFA, Found: 40%
AVEFA; application rate 1.95 g/ha (Example 16)
  Herbicidal action against AVEFA, Found: 20%
AVEFA; [12]
  Herbicidal action against AVEFA, Found: 20%
AVEFA; [7]
  Herbicidal action against AVEFA, Found: 20%
AVEFA; application rate 3.91 g/ha
  Herbicidal action against AVEFA, Found: 40%
AVEFA; application rate 3.91 g/ha (Example 16)
  Herbicidal action against AVEFA, Found: 30%
AVEFA; [13]
  Herbicidal action against AVEFA, Found: 20%
AVEFA; [8]
  Herbicidal action against AVEFA, Found: 30%
SETFA; application rate 1.95 g/ha
  Herbicidal action against SETFA, Found: 50%
SETFA; application rate 3.91 g/ha
  Herbicidal action against SETFA, Found: 65%
GALAP; application rate 0.49 g/ha
  Herbicidal action against GALAP, Found: 15%
GALAP; application rate 0.98 g/ha
  Herbicidal action against GALAP, Found: 15%
BIDPI [5]; application rate 62.5 g/ha
  Herbicidal action against BIDPI, Found: 30%
BIDPI [5]; application rate 125 g/ha
  Herbicidal action against BIDPI, Found: 30%
ECHCG [6]; application rate 0.49 g/ha
  Herbicidal action against ECHCG, Found: 0%
ECHCG [6]; application rate 0.98 g/ha
  Herbicidal action against ECHCG, Found: 0%
ECHCG [6]; [9]
  Herbicidal action against ECHCG, Found: 0%
ECHCG [6]; [10]
  Herbicidal action against ECHCG, Found: 0%
ECHCG [6]; [7]
  Herbicidal action against ECHCG, Found: 50%
ECHCG [6]; [8]
  Herbicidal action against ECHCG, Found: 50%

## COC[C@H](C)N(C(=O)CCl)c1c(C)csc1C [dimethenamide-P]
SORHA; application rate 62.5 g/ha
  Herbicidal action against SORHA, Found: 50%
CHEAL; application rate 62.5 g/ha
  Herbicidal action against CHEAL, Found: 10%
ECHCG [1]; application rate 62.5 g/ha (Example 22)
  Herbicidal action against ECHCG, Found: 85%
ECHCG [1]; [11]
  Herbicidal action against ECHCG, Found: 85%
